Experimental data: ChEMBL document CHEMBL1201862, “PubChem BioAssay data set” (2004)
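Interpolation was linear, between the two tested concentrations surrounding the appropriate level; five concentrations were tested over 48 hours in 96-well plates. GI50 = concentration required for 50% inhibition of growth.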 Active and inactive are the calls of the source. Rule as the data show it: active = GI50 up to about 1.1 µM and inactive = higher.

Legend:
Assay in all cases: inhibition of tumour cell growth, NCI panel, 48 h
A549 = system: A549
ACHN = system: ACHN
DU-145 = system: DU-145
HCT-15 = system: HCT-15
M14 = system: M14
NCI-H226 = system: NCI-H226
NCI-H460 = system: NCI-H460
OVCAR-8 = system: OVCAR-8
PC-3 = system: PC-3
RPMI-8226 = system: RPMI-8226
SK-MEL-28 = system: SK-MEL-28
T47D = system: T47D
TK-10 = system: TK-10
UACC-62 = system: UACC-62
UO-31 = system: UO-31
HT-29 = system: HT-29
IGROV-1 = system: IGROV-1
MCF7 = system: MCF7
MOLT-4 = system: MOLT-4

Structure (SMILES) | GI50 (A549) | GI50 (ACHN) | GI50 (DU-145) | GI50 (HCT-15) [µM] | GI50 (M14) | GI50 (NCI-H226) | GI50 (NCI-H460) | GI50 (OVCAR-8) | GI50 (PC-3) | GI50 (RPMI-8226) | GI50 (SK-MEL-28) | GI50 (T47D) | GI50 (TK-10) | GI50 (UACC-62) | GI50 (UO-31) | GI50 (HT-29) | GI50 (IGROV-1) | GI50 (MCF7) | GI50 (MOLT-4)
COC(=O)C(N)CCCC(N)C(=O)NC(C)C(=O)NC(CCC(=O)NCCCNc1ccc([N+](=O)[O-])c2[nH]c3ccccc3c(=O)c12)C(N)=O (stereo unspecified) | 3.13 µM (inactive) | 3.68 µM (inactive) | 6.56 µM (inactive) | 3.67 | 5.4 µM (inactive) | 9.55 µM (inactive) | 3.59 µM (inactive) | 3.37 µM (inactive) | 5.56 µM (inactive) | 3.19 µM (inactive) | 10.2 µM (inactive) | 11.6 µM (inactive) | 10 µM (inactive) | 2.42 µM (inactive) | 3.49 µM (inactive) | – | – | – | –
O=C1C(/C=C/c2ccc(Cl)cc2)=NNC2N1N=C1NC(=O)C3(NN12)c1ccccc1-c1ccccc13 (stereo unspecified) | > 100 µM (inactive) | > 100 µM (inactive) | > 100 µM (inactive) | 69.5 | > 100 µM (inactive) | > 100 µM (inactive) | > 100 µM (inactive) | > 100 µM (inactive) | > 100 µM (inactive) | – | > 100 µM (inactive) | – | > 100 µM (inactive) | > 100 µM (inactive) | 94 µM (inactive) | 66.2 µM (inactive) | > 100 µM (inactive) | 26.5 µM (inactive) | –
Cc1ccc(-c2cc(-c3ccco3)nc(N)n2)o1 | > 100 µM (inactive) | > 100 µM (inactive) | – | > 100 | > 100 µM (inactive) | > 100 µM (inactive) | > 100 µM (inactive) | > 100 µM (inactive) | – | > 100 µM (inactive) | > 100 µM (inactive) | – | > 100 µM (inactive) | > 100 µM (inactive) | 58.2 µM (inactive) | > 100 µM (inactive) | > 100 µM (inactive) | – | > 100 µM (inactive)
C=CCc1cccc2cc(C(=O)Nc3nc(C45CC6CC(CC(C6)C4)C5)cs3)c(=O)oc12 | 49.9 µM (inactive) | 17 µM (inactive) | 44.6 µM (inactive) | 67 | – | 29.1 µM (inactive) | 29.9 µM (inactive) | 85.9 µM (inactive) | 29.6 µM (inactive) | 26.9 µM (inactive) | 61.8 µM (inactive) | – | 30.8 µM (inactive) | – | 10.8 µM (inactive) | 49.8 µM (inactive) | 27.8 µM (inactive) | > 100 µM (inactive) | 34.7 µM (inactive)
O=C(CNc1ccccn1)Nn1cnc2ccc(S(=O)(=O)Nc3ccccn3)cc2c1=O | > 100 µM (inactive) | > 100 µM (inactive) | > 100 µM (inactive) | > 100 | > 100 µM (inactive) | > 100 µM (inactive) | > 100 µM (inactive) | > 100 µM (inactive) | > 100 µM (inactive) | > 100 µM (inactive) | > 100 µM (inactive) | – | > 100 µM (inactive) | > 100 µM (inactive) | > 100 µM (inactive) | > 100 µM (inactive) | 70.1 µM (inactive) | > 100 µM (inactive) | > 100 µM (inactive)
CC(=C\c1ccccc1)/C=C(\C#N)C(N)=O | – | > 10 µM (inactive) | > 10 µM (inactive) | > 10 | > 10 µM (inactive) | > 10 µM (inactive) | > 10 µM (inactive) | > 10 µM (inactive) | > 10 µM (inactive) | – | > 10 µM (inactive) | > 10 µM (inactive) | > 10 µM (inactive) | – | > 10 µM (inactive) | > 10 µM (inactive) | > 10 µM (inactive) | > 10 µM (inactive) | –
O=C(CN1CCOCC1)c1ccc2c(c1)oc(=O)n2CCN1CCOCC1 | – | – | > 100 µM (inactive) | – | > 100 µM (inactive) | > 100 µM (inactive) | – | > 100 µM (inactive) | > 100 µM (inactive) | > 100 µM (inactive) | > 100 µM (inactive) | – | – | – | – | > 100 µM (inactive) | > 100 µM (inactive) | > 100 µM (inactive) | > 100 µM (inactive)
